PubChem BioAssay (NCI)
“And” between values parts separate entries of the source, which are not always exact repeats. Equal values may be shown once.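 Following 48 hours of exposure in 96-well plates, responses at five concentrations were used to interpolate endpoints linearly. Here, GI50 denotes the concentration required for 50% inhibition of growth. The concentration for full growth arrest is given as TGI.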

What was measured:
Assay in all cases: NCI tumour cell line growth inhibition, 48 h
MALME-3M melanoma = tested on: MALME-3M melanoma
UACC-62 melanoma = tested on: UACC-62 melanoma
SF-295 CNS = tested on: SF-295 CNS
SW-620 colon = tested on: SW-620 colon
K-562 leukemia = tested on: K-562 leukemia
HCT-15 colon = tested on: HCT-15 colon
MOLT-4 leukemia = tested on: MOLT-4 leukemia
DU-145 prostate = tested on: DU-145 prostate
SR leukemia = tested on: SR leukemia
DLD-1 colon = tested on: DLD-1 colon
SN12C renal = tested on: SN12C renal
CCRF-CEM leukemia = tested on: CCRF-CEM leukemia
ACHN renal = tested on: ACHN renal
LOX IMVI melanoma = tested on: LOX IMVI melanoma
OVCAR-4 ovarian = tested on: OVCAR-4 ovarian
OVCAR-8 ovarian = tested on: OVCAR-8 ovarian
P388/ADR leukemia = tested on: P388/ADR leukemia

CCOC(=O)C(CC(C)C)NC(=O)C(Cc1ccc(N(CCCl)CCCl)cc1)NC(C)=O (stereo not given)
GI50 (MALME-3M melanoma): 4.01 µM | TGI (MALME-3M melanoma): 22.8 µM and 7.77 µM | GI50 (UACC-62 melanoma): 2.86 µM | TGI (UACC-62 melanoma): 12.7 µM and 7.29 µM | GI50 (SF-295 CNS): 7.89 µM | TGI (SF-295 CNS): 26.8 µM and 26.3 µM | GI50 (SW-620 colon): 11.3 µM | TGI (SW-620 colon): 28.7 µM and 33.4 µM | GI50 (K-562 leukemia): 11.6 µM | TGI (K-562 leukemia): 49.7 µM and 54.6 µM | TGI (HCT-15 colon): 43.1 µM | GI50 (MOLT-4 leukemia): 2.04 µM and 0.307 µM | TGI (MOLT-4 leukemia): 15.5 µM and 3.31 µM | TGI (DU-145 prostate): 21.9 µM | GI50 (SR leukemia): 1.04 µM and 0.895 µM | TGI (SR leukemia): 10.8 µM and 7 µM | GI50 (DLD-1 colon): 5.4 µM and 8.64 µM | TGI (DLD-1 colon): 21.1 µM and 31.3 µM | GI50 (SN12C renal): 4.59 µM | TGI (SN12C renal): 17.2 µM and 14.6 µM | GI50 (CCRF-CEM leukemia): 2.52 µM | GI50 (ACHN renal): 3.7 µM | TGI (ACHN renal): 16 µM and 9.63 µM | GI50 (LOX IMVI melanoma): 3.34 µM | TGI (LOX IMVI melanoma): 15.1 µM and 12.5 µM | GI50 (OVCAR-4 ovarian): 16.1 µM | TGI (OVCAR-4 ovarian): 29.5 µM and 27.1 µM | GI50 (OVCAR-8 ovarian): 12.1 µM | TGI (OVCAR-8 ovarian): 30.8 µM and 55.2 µM | TGI (P388/ADR leukemia): 10.5 µM
